Values of other authors, collected in patent publication US20120022018A1, “ANTI-VIRAL PROPERTIES OF ALOE VERA AND ACQUIRED IMMUNE DEFICIENCY SYNDROME (AIDS) TREATMENT” (NORTH TEXAS MEDICAL ASSOCIATES, priority 2010, published 2012).

Tests used:
[1] = test system: monocytic/macrophagic (M/M) cell counts; details: in vivo
[2] = test system: HIV-1 envelope glycoprotein; details: HIV-1 infected monocytes cultures; instead of usual GP-160, GP-120, GP-41 bands
[3] = test system: New Castle and paramyxoviruses; details: New Castle and paramyxoviruses in culture; altered envelope glycoproteins

## Acemannan
[1]
  monocytic/macrophagic (M/M) cell counts: increase
[2]
  effect on HIV-1 envelope glycoprotein: induced the production of multiple molecular weights of HIV-1 envelope glycoprotein
[3]
  effect on infectivity of virions: rendered the virions incapable of infecting susceptible target cell lines as well as animals
